These results are taken from ChEMBL document CHEMBL3425417, “Synthesis and Structure-Activity Relationship Study of 1-Phenyl-1-(quinazolin-4-yl)ethanols as Anticancer Agents” (ACS Med Chem Lett, 2015).

In assay [1] the test system is A549. Put plainly: Cytotoxicity against human A549 cells assessed as growth inhibition after 72 hrs by CellTiter 96 Aqueous one solution cell proliferation assay. It counts as functional, cell-based. As to conditions: for IC50: A549, 72 h.
For assay [2], the target named is T1, Tubulin (Homo sapiens) (UniProt P68371+Q9H4B7+P0DPH7+P68366+Q13509+Q71U36+P04350+Q3ZCM7+P07437+P68363+Q9BQE3+Q6PEY2+Q13885+Q9BVA1+Q9BUF5). As to conditions: 45 uM.
Description: Displacement of colchicine from tubulin (unknown origin) at 45 uM preincubated for 30 mins followed by colchicine addition measured after 30 mins by fluorescence assay
Assay [3] has as its target T1, Tubulin (Homo sapiens). Put plainly: Displacement of colchicine from tubulin (unknown origin) preincubated for 30 mins followed by colchicine addition measured after 30 mins by fluorescence assay. The format is protein-complex assay.
Assay [4] relates to A549. Put plainly: Induction of microtubule destabilization in human A549 cells at 4 uM by DAPI-staining-based fluorescence microscopic analysis. The format is cell-based.
Assay [5] deals with T1, Tubulin (Homo sapiens). Briefly: Inhibition of tubulin (unknown origin) polymerization at 3 to 10 uM by fluorescence assay. The format is protein-complex assay.
Assay [6] relates to A549. Briefly: Cell cycle arrest in human A549 cells assessed as accumulation at G2/M phase after 24 hrs by propidium iodide staining-based flow cytometric analysis. It counts as functional. (A flow cytometer gives signals particle by particle.)
For assay [7], the target named is T1, Tubulin (Homo sapiens). Briefly: Inhibition of tubulin (unknown origin) polymerization at 10 uM by fluorescence assay. The format is protein-complex assay.
The test system of assay [8] is MCF7. Put plainly: Cytotoxicity against human MCF7 cells assessed as growth inhibition after 72 hrs by CellTiter 96 Aqueous one solution cell proliferation assay. The format is functional, cell-based. As to conditions: MCF7, 72 h.
Assay [9] has as its system A549. Put plainly: Cell cycle arrest in human A549 cells assessed as accumulation at G1 phase at 0.3 uM after 24 hrs by propidium iodide staining-based flow cytometric analysis (reference value: 75.9%). It counts as functional.
Assay [10] relates to NCI-H460. Put plainly: Cytotoxicity against human NCI-H460 cells assessed as growth inhibition after 72 hrs by CellTiter 96 Aqueous one solution cell proliferation assay. The format is functional, cell-based. Particulars: NCI-H460, 72 h.
The subject of assay [11] is A549. Briefly: Cell cycle arrest in human A549 cells assessed as accumulation at G2/M phase at 3 uM after 24 hrs by propidium iodide staining-based flow cytometric analysis (reference value: 16.5%). The format is functional.
The subject of assay [12] is A549. Briefly: Cell cycle arrest in human A549 cells assessed as accumulation at G2/M phase at 0.3 uM after 24 hrs by propidium iodide staining-based flow cytometric analysis (reference value: 16.5%). The format is functional.
Assay [13] has as its system HeLa. Put plainly: Cytotoxicity against human HeLa cells assessed as growth inhibition after 72 hrs by CellTiter 96 Aqueous one solution cell proliferation assay. It counts as functional, cell-based.
The nature of assay [14]: Cytotoxicity against human PC3 cells assessed as growth inhibition after 72 hrs by CellTiter 96 Aqueous one solution cell proliferation assay. The format is functional, cell-based. Particulars: PC-3, 72 h.
Assay [15] deals with A549. Briefly: Cell cycle arrest in human A549 cells assessed as accumulation at G1 phase at 1 uM after 24 hrs by propidium iodide staining-based flow cytometric analysis (reference value: 75.9%). The format is functional.
Assay [16] relates to A549. Put plainly: Cell cycle arrest in human A549 cells assessed as accumulation at G2/M phase at 1 uM after 24 hrs by propidium iodide staining-based flow cytometric analysis (reference value: 16.5%). It counts as functional.
For assay [17], the system named is A549. Briefly: Cell cycle arrest in human A549 cells assessed as accumulation at G1 phase at 3 uM after 24 hrs by propidium iodide staining-based flow cytometric analysis (reference value: 75.9%). It counts as functional.
Assay [18] in a line: Cytotoxicity against human HCT116 cells assessed as growth inhibition after 72 hrs by CellTiter 96 Aqueous one solution cell proliferation assay. It counts as functional, cell-based. As to conditions: HCT-116, 72 h.
The test system of assay [19] is A549. Briefly: Induction of microtubule destabilization in human A549 cells at 45 nM by DAPI-staining-based fluorescence microscopic analysis. The format is cell-based.

In general, IC50 refers to the concentration needed to halve the response being measured.

Structures are written as SMILES. Activity calls are given as the source filed them. No cut-off for these calls is given here. A value given as a limit tells only on which side of the number the result lay.

Consider `COc1ccc(C(C)(O)c2nc(Nc3ccccc3)nc3ccccc23)cc1` (configuration not stated), for which, in assay [1], the IC50 stood at 2700 nM.
For `COC(=O)Nc1nc2cc(C(=O)c3cccs3)ccc2[nH]1`, the inhibition entry in [2] was “Active”.
Consider `COc1ccc(C(O)(Cc2ccccc2)c2ncnc3ccccc23)cc1` (configuration not stated), for which, in assay [1], the IC50 was found to be 9800 nM.
Still for that read-out and setting: in the case of `COc1ccc(C(C)(O)c2nc(-c3ccccc3Cl)nc3ccccc23)cc1` (configuration not stated) it was 780 nM.
In the case of `COc1ccc(C(C)(O)c2nc(C(Cl)(Cl)Cl)nc3ccccc23)cc1` (configuration not stated), the IC50 in [1] was determined as 38 nM.
Consider `CCOc1nc(C(C)(O)c2ccc(OC)cc2)c2ccccc2n1` (configuration not stated), for which, in assay [1], the half-inhibitory concentration (IC50) came out at 340 nM.
As for `COc1ccc(C(C)(O)c2nc(N3CCCCC3)nc3ccccc23)cc1` (configuration not stated), the IC50 in assay [1] was found to be 2700 nM.
Same read-out and setting: the figure for `COc1ccc(C(C)(O)c2nc(N3CCN(c4ccc(F)cc4)CC3)nc3ccccc23)cc1` (configuration not stated) is 1900 nM; for `CC(O)(c1ccccc1)c1ncnc2ccccc12` (configuration not stated) it is greater than 25000 nM; for `COc1ccc(C(C)(O)c2nc(=O)[nH]c3ccccc23)cc1` (configuration not stated) it is greater than 25000 nM.
For the compound `COc1ccc(C(C)(O)c2nc(N3CCOCC3)nc3ccccc23)cc1` (configuration not stated), in [1], the IC50 came to 170 nM.
Turning to `C=CCOc1nc(C(C)(O)c2ccc(OC)cc2)c2ccccc2n1` (configuration not stated), the half-inhibitory concentration (IC50) in assay [1] is 410 nM.
Still for that read-out and setting: the figure for `COc1ccc(C(C)(O)c2nc(OC)c3ccccc3n2)cc1` (configuration not stated) is 2000 nM; for `CC(O)(c1ccc2c(c1)OCO2)c1ncnc2ccccc12` (configuration not stated) it is 20000 nM; for `CCCOc1nc(C(C)(O)c2ccc(OC)cc2)c2ccccc2n1` (configuration not stated) it is 1200 nM.
As for `CC[C@]1(O)C[C@@H]2CN(CCc3c([nH]c4ccccc34)[C@@](C(=O)OC)(c3cc4c(cc3OC)N(C)[C@H]3[C@@](O)(C(=O)OC)[C@H](OC(C)=O)[C@]5(CC)C=CCN6CC[C@]43[C@@H]65)C2)C1`, the inhibition entry in [3] is “inactive”.
Take `CCOc1ccc(C(C)(O)c2ncnc3ccccc23)cc1` (configuration not stated): in [1], the IC50 was 300 nM.
As for `COc1ccc(C(C)(O)c2ncnc3ccccc23)cc1` (racemic) [listing 1 of 2 here], in assay [4], the result was Active. Moreover, the inhibition result in assay [3] is “Dose-dependent effect”. Further, the inhibition entry in [5] is “Active”. In addition, the Activity entry in assay [6] was “Dose-dependent effect”.
In the case of `CNc1ccc(C(C)(O)c2ncnc3ccccc23)cc1` (configuration not stated), the IC50 in [1] was determined as 4100 nM.
Consider `CC(O)(c1ccc(OC(F)(F)F)cc1)c1ncnc2ccccc12` (configuration not stated), for which the IC50 in assay [1] is greater than 25000 nM.
As to `COc1ccc(C(C)(O)c2nc(Oc3ccccc3)nc3ccccc23)cc1` (configuration not stated), in [1], the IC50 came to 3300 nM.
As for `COc1ccc(C(C)(O)c2nc(-c3cccc(Cl)c3)nc3ccccc23)cc1` (configuration not stated), the IC50 in assay [1] came out at 2100 nM.
For `COc1ccc(C(C)(O)c2nc(N(C)C)nc3ccccc23)cc1` (configuration not stated), the IC50 in assay [1] came out at 210 nM.
Regarding `COc1ccc(C(C)(O)c2nc(-c3ccccc3)nc3ccccc23)cc1` (configuration not stated), in assay [1], the IC50 worked out at 100 nM. The inhibition entry in [7] is “Active”.
On to `COc1ccc(C(C)(O)c2nc(N3CCC(C)CC3)nc3ccccc23)cc1` (configuration not stated), for which the IC50 in assay [1] was 19000 nM.
As for `COc1ccc(C(C)(O)c2nc(OC)nc3ccccc23)cc1` (configuration not stated), the IC50 in assay [1] worked out at 58 nM.
As to `COc1ccc(C(C)(O)c2ncnc3ccccc23)cc1` (racemic) [listing 2 of 2 here], the IC50 stood at 100 nM in assay [8]; 100 nM in assay [10]; 270 nM in assay [1]; 100 nM in assay [13]; 100 nM in [14]; 100 nM in [18]. Further, the Activity worked out at 56.9% in [9]; 75.9% in assay [11]; 35.3% in assay [12]; 23.7% in [15]; 68.6% in [16]; 18.3% in assay [17].
On to `CC(O)(c1ccc(C(F)(F)F)cc1)c1ncnc2ccccc12` (configuration not stated), for which the IC50 in assay [1] is greater than 25000 nM.
In the case of `COc1ccc(C(C)(O)c2nc(-c3ccc(Cl)cc3)nc3ccccc23)cc1` (configuration not stated), the IC50 in [1] was found to be 400 nM.
`CCC(O)(c1ccc(OC)cc1)c1ncnc2ccccc12` (configuration not stated): in assay [1], the IC50 was 1800 nM.
For the compound `COc1ccc(C(C)(O)c2nc(SC)nc3ccccc23)cc1` (configuration not stated), the IC50 in assay [1] was 67 nM.
On to `CC(O)(c1ccc(F)cc1)c1ncnc2ccccc12` (configuration not stated), for which the IC50 in [1] is greater than 25000 nM.
Same read-out and setting: the figure for `COc1ccc(C(C)(O)c2nc(-c3ccsc3)nc3ccccc23)cc1` (configuration not stated) is 35 nM; for `COc1ccc(C(C)(O)c2nc(C)nc3ccccc23)cc1` (configuration not stated) it is 53 nM.
As for `COc1ccc(C(C)(O)c2nc(Cl)nc3ccccc23)cc1` (configuration not stated), the IC50 in [1] was determined as 27 nM.
As to `COc1ccc(C(O)c2ncnc3ccccc23)cc1` (configuration not stated), the IC50 in assay [1] was greater than 25000 nM.
In the case of `CC(O)(c1ccc(Cl)cc1)c1ncnc2ccccc12` (configuration not stated), the IC50 in assay [1] was greater than 25000 nM.
As for `COc1ccc(C(O)(c2ncnc3ccccc23)C(F)(F)F)cc1` (configuration not stated), the IC50 in assay [1] turned out to be 1100 nM.
For `COc1ccc(C(C)(O)c2ncnc3ccccc23)cc1OC` (configuration not stated), the IC50 in [1] turned out to be 21000 nM.
The same measure, in the same setting: in the case of `CN(C)c1ccc(C(C)(O)c2ncnc3ccccc23)cc1` (configuration not stated) it was 1300 nM; in that of `CSc1ccc(C(C)(O)c2ncnc3ccccc23)cc1` (configuration not stated), 340 nM; in that of `CC(O)(c1cccc(OCc2ccccc2)c1)c1ncnc2ccccc12` (configuration not stated), greater than 25000 nM.
As for `COc1cccc(C(C)(O)c2ncnc3ccccc23)c1` (configuration not stated), the IC50 in assay [1] was greater than 25000 nM.
The same measure, in the same setting: in the case of `CC(O)(c1cccc(O)c1)c1ncnc2ccccc12` (configuration not stated) it was greater than 25000 nM.
Consider `CCOc1ccc(C(=O)c2ncnc3ccccc23)cc1`, for which the IC50 in [1] was greater than 25000 nM.
For `COc1cc2c(c(OC)c1OC)-c1ccc(OC)c(=O)cc1[C@@H](NC(C)=O)CC2`, the result in [19] was Active.
Turning to `COc1ccc(C(C)(O)c2ncnc3ccccc23)cc1` (stereo in doubt; (+)-1a), the “growth inhibition (GI)” value in [1] was “Active”. Besides, the inhibition result in [5] was “Active”.
Turning to `COc1ccc(C(C)(O)c2ncnc3ccccc23)cc1` (single isomer, unassigned; (-)), the “growth inhibition (GI)” value in [1] was “Active”. In addition, the inhibition entry in assay [5] is “Active”.
With `COc1ccc(C(=O)c2ncnc3ccccc23)cc1`, the IC50 in assay [1] is 20000 nM.
Same read-out and setting: in the case of `COc1cc(C(C)(O)c2ncnc3ccccc23)cc(OC)c1OC` (configuration not stated) it was greater than 25000 nM.
